# Legend:
# [1] = biological target: T1, Human M4 (Homo sapiens, UniProt P08173); experiment: mAChR M4 cell-based functional assay (calcium flux, antagonism of EC80 acetylcholine response, M4/Gqi5/CHO-K1 cells); details: % ACh maximum at 30 μM
# T1 construct: expressed in transfected cells; host or cells: CHO-K1 (ATCC), stably co-transfected with Gqi5
# T1 sequence (P08173 1-479): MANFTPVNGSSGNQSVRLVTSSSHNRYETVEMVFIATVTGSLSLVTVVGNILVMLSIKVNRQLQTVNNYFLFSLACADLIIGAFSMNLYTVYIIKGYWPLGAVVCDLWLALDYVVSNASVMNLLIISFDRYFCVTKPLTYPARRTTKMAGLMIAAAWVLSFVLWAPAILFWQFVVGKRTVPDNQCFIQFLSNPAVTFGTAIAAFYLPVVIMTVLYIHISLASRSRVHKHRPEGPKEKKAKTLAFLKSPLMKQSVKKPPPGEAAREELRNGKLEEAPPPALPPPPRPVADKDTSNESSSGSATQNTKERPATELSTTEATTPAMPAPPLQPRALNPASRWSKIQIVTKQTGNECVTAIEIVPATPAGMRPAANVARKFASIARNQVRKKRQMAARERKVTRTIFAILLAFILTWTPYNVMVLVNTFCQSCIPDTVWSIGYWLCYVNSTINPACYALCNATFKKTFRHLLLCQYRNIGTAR
# Procedure: Human or rat M4 cDNA, along with the chimeric G protein Gqi5, were transfected into Chinese hamster ovary (CHO-K1) cells purchased from the American Type Culture Collection using Lipofectamine2000. M4/Gqi5/CHO cells were grown in Ham's F-12 medium containing 10% heat-inactivated fetal bovine serum (FBS), 20 mM HEPES, 500 μg/mL G418 sulfate, and 200 μg/mL Hygromycin B.
# For high throughput measurement of agonist-evoked increases in intracellular calcium, CHO-K1 cells stably expressing muscarinic receptors were plated in growth medium lacking G^418 and hygromycin at 15,000 cells/20 μL/well in Greiner 384-well black-walled, tissue culture (TC)-treated, clear-bottom plates (VWR). Cells were incubated overnight at 37° C. and 5% CO2. The next day, cells were washed using an ELX 405 (BioTek) with assay buffer; the final volume was then aspirated to 20 μL. Next, 20 μL of a […] of Fluo-4/acetoxymethyl ester (Invitrogen, Carlsbad, CA), prepared as a 2.3 mM stock in DMSO and mixed in a 1:1 ratio with 10% (w/v) Pluronic F-127 and diluted in assay buffer, was added to the wells and the cell plates were incubated for 50 min at 37° C. and 5% CO2. Dye was removed by washing with the ELX 405 and the final volume was aspirated to 20 μL. Compound master plates were formatted in a 10-point concentration-response curve (CRC) format (1:3 dilutions) in 100% DMSO with a starting concentration of 10 or 1 mM using a BRAVO liquid handler (Agilent). Test compound CRCs were then transferred to daughter plates (240 nL) using the Echo acoustic plate reformatter (Labcyte, Sunnyvale, CA) and then diluted into assay buffer (40 μL) to a 2× stock using a Thermo Fisher Combi (Thermo Fisher Scientific, Waltham, MA).
# Calcium flux was measured using the Functional Drug Screening System (FDSS) 6000 or 7000 (Hamamatsu Corporation, Tokyo, Japan) as an increase in the fluorescent static ratio. Compounds were applied to cells (20 μL, 2×) using the automated system of the FDSS at 2 seconds into the protocol and the data were collected at 1 Hz. At 143 s, 10 μL of an EC20 concentration of the muscarinic receptor agonist acetylcholine was added (5×), followed by the addition of 12 μL of an EC80 concentration of acetylcholine at the 268 s time point (5×). Agonist activity was analyzed as a concentration-dependent increase in calcium mobilization upon compound addition. Positive allosteric modulator activity was analyzed as a concentration-dependent increase in the EC20 acetylcholine response. Antagonist activity was analyzed as a concentration-dependent decrease in the EC80 acetylcholine response; for the purposes of the tables herein, an IC50 (inhibitory concentration 50) was calculated as a concentration-dependent decrease of the response elicited by an EC80 concentration of acetylcholine. Concentration-response curves were generated using a four-parameter logistical equation in XLFit curve fitting software (IDBS, Bridgewater, NJ) for Excel (Microsoft, Redmond, WA) or Prism (GraphPad Software, Inc., San Diego, CA) or the Dotmatics software platform (Dotmatics, Bishop's Stortford, UK).
# Compounds were synthesized as described above. Activity (IC50 and Emin) was determined in the mAChR M4 cell-based functional assay as described above and the data are shown in Table 2.
# [2] = biological target: T2, Human M1 (Homo sapiens, UniProt P11229); experiment: mAChR M1 cell-based functional assay (calcium flux, antagonism of EC80 acetylcholine response, hM1 CHO-K1 cells); details: compound 61 versus compound 62, data of Table 3
# T2 sequence (P11229 1-460): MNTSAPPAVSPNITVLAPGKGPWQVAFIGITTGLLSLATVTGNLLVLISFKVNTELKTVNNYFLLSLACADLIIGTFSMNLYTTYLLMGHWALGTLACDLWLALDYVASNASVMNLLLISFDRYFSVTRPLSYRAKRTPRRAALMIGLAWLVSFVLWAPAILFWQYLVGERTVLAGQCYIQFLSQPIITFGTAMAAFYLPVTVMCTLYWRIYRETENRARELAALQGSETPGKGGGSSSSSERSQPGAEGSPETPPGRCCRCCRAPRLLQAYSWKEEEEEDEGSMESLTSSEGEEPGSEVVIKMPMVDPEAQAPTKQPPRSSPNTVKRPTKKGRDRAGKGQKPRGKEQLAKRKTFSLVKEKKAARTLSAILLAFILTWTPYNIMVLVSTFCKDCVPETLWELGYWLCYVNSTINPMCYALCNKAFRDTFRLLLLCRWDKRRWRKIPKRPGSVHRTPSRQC
# Procedure: hM1 cDNA was purchased from Missouri S&T cDNA Resource and used to stably transfect CHO-K1 cells purchased from the American Type Culture Collection using Lipofectamine2000. hM1 cells were grown in Ham's F-12 medium containing 10% heat-inactivated fetal bovine serum (FBS), 20 mM HEPES, and 50 μg/mL G418 sulfate.
# For high throughput measurement of agonist-evoked increases in intracellular calcium, CHO-K1 cells stably expressing muscarinic receptors were plated in growth medium lacking G418 and hygromycin at 15,000 cells/20 μL/well in Greiner 384-well black-walled, tissue culture (TC)-treated, clear-bottom plates (VWR). Cells were incubated overnight at 37° C. and 5% CO2. […]
# Calcium flux was measured using the Functional Drug Screening System (FDSS) 6000 (Hamamatsu Corporation, Tokyo, Japan) as an increase in the fluorescent static ratio. […] Agonist activity was analyzed as a concentration-dependent increase in calcium mobilization upon compound addition. […] Positive allosteric modulator activity was analyzed as a concentration-dependent increase in the EC20 acetylcholine response. Antagonist activity was analyzed as a concentration-dependent decrease in the EC80 acetylcholine response; for the purposes of the tables herein, an IC50 (inhibitory concentration 50) was calculated as a concentration-dependent decrease of the response elicited by an EC80 concentration of acetylcholine. […]
# [3] = system: catalepsy induced by the DA receptor antagonist haloperidol; details: cited from earlier work
SMILES,Human M4 Emin [1] [%],further results
"[2H]C1([2H])CC(C([2H])([2H])N2C[C@H]3C[C@H](Nc4nnc(-c5cnccc5C(F)(F)F)cc4C)C[C@H]3C2)CC([2H])([2H])O1 [Compound 18, (3aR,5s,6aS)-N-(4-methyl-6-(4-(trifluoromethyl)pyridin-3-yl)pyridazin-3-yl)-2-((tetrahydro-2H-pyran-4-yl-2,2,6,6-d4)methyl-d2)octahydrocyclopenta[c]pyrrol-5-amine]",4,
"[2H]C([2H])([C@@H]1CCCOC1)N1C[C@H]2C[C@H](Nc3ccc(-c4cccnc4C(F)(F)F)nn3)C[C@H]2C1 [Compound 47, (3aR,5s,6aS)-2-(((S)-tetrahydro-2H-pyran-3-yl)methyl-d2)-N-(6-(2-(trifluoromethyl)pyridin-3-yl)pyridazin-3-yl)octahydrocyclopenta[c]pyrrol-5-amine]",2,
"[2H]C([2H])([C@H]1CCOC(C)(C)C1)N1C[C@H]2C[C@H](Nc3ccc(-c4cccnc4C(F)(F)F)nn3)C[C@H]2C1 [Compound 61, (3aR,5s,6aS)-2-(((S)-2,2-dimethyltetrahydro-2H-pyran-4-yl)methyl-d2)-N-(6-(2-(trifluoromethyl)pyridin-3-yl)pyridazin-3-yl)octahydrocyclopenta[c]pyrrol-5-amine]",,"remaining activity at 30 µM ([1]; CHO-K1, read-out: Human M4 Emin): 8%; human mAChR M1 antagonist activity (comparison in words) [2]: less human mAChR M1 antagonist activity than compound 62"
CN1[C@@H]2C[C@@H](OC(=O)[C@H](CO)c3ccccc3)C[C@H]1[C@@H]1O[C@@H]12 [scopolamine],,reduction of haloperidol-induced catalepsy ([3]; M4KO mice): ineffective in reducing catalepsy; reversal of haloperidol-induced catalepsy ([3]; WT mice): completely reversed

# Now from value to compound, other results behind:
Human M4 Emin [1] [%],SMILES,further results
3,"[2H]C([2H])(C1CCOC(C)(C)C1)N1C[C@H]2C[C@H](Nc3ccc(-c4cnccc4C(F)(F)F)nn3)C[C@H]2C1 (single isomer, unassigned) [Compound 58]",
2,"[2H]C1([2H])CC(C([2H])([2H])N2C[C@H]3C[C@H](Nc4nnc(-c5cnccc5C(F)(F)F)cc4OC)C[C@H]3C2)CC([2H])([2H])O1 [Compound 22, (3aR,5s,6aS)-N-(4-methoxy-6-(4-(trifluoromethyl)pyridin-3-yl)pyridazin-3-yl)-2-((tetrahydro-2H-pyran-4-yl-2,2,6,6-d4)methyl-d2)octahydrocyclopenta[c]pyrrol-5-amine]",
2,"[2H]C([2H])([C@H]1CCCCO1)N1C[C@H]2C[C@H](Nc3ccc(-c4cccnc4C(F)(F)F)nn3)C[C@H]2C1 [Compound 49, (3aR,5s,6aS)-2-(((R)-tetrahydro-2H-pyran-2-yl)methyl-d2)-N-(6-(2-(trifluoromethyl)pyridin-3-yl)pyridazin-3-yl)octahydrocyclopenta[c]pyrrol-5-amine]",

# Reference: patent US20250145595A1, “ANTAGONISTS OF THE MUSCARINIC ACETYLCHOLINE RECEPTOR M4” (Vanderbilt University, priority 2021, published 2025)
